# Patent US7741350B1 (Cara Therapeutics, Inc., priority 2009, dated 2010)
# Where two headings read alike, the source gives them in different places.
# Key:
# [1] = target: human CB1 receptor (hCB1) (Homo sapiens, UniProt P21554); assay: cAMP assay at human CB1 receptor; type: cell-based; settings: hCB1R; maximum measurable range 30 μM; read-out: EC50 (Potency at Human CB1 determined by cAMP Assay)
# Method: The ability of each of the compounds to act as agonists or inverse agonists at human CB2 and CB1 receptors (hCB2, hCB1, respectively) and at the rat CB2 receptor (rCB2) was determined by measuring changes in intracellular cyclic AMP (cAMP) levels as described in U.S. Pat. No. 7,517,874.
# TR-FRET was measured using a 330-380 nm excitation filter, 615 nm and 665 nm emission filters, dichroic minor 380 nm and Z=10 mm. cAMP concentrations in each well were back-calculated from a cAMP standard curve run concurrently during each assay. Each plate contained 16 wells of forskolin stimulated cells and 16 wells of forskolin plus 1 μM CP55,940-treated cells. Concentrations of cAMP were expressed as a percent of the difference of these two groups of wells. Concentration-response data including EC50 (the concentration of compound producing 50% of the maximal response) and intrinsic activity (the percent maximal activation compared to full activation by CP55, 940) were determined using a four-parameter non-linear regression algorithm (CambridgeSoft Bioassay).
# [2] = target: human CB2 receptor (hCB2) (Homo sapiens, UniProt P34972); assay: cAMP assay at human CB2 receptor; type: cell-based; settings: hCB2R, maximum measurable range 30 μM
# Method: TR-FRET was measured using a 330-380 nm excitation filter, 615 nm and 665 nm emission filters, dichroic minor 380 nm and Z=10 mm. cAMP concentrations in each well were back-calculated from a cAMP standard curve run concurrently during each assay. Each plate contained 16 wells of forskolin stimulated cells and 16 wells of forskolin plus 1 μM CP55,940-treated cells. Concentrations of cAMP were expressed as a percent of the difference of these two groups of wells.
# [3] = EC50 (Potency at Human CB2 determined by cAMP Assay)
# [4] = read-out: EC50 (Potency at Human CB2 determined by cAMP Assay)
# Chain of human CB2 receptor (hCB2) (P34972 whole entry): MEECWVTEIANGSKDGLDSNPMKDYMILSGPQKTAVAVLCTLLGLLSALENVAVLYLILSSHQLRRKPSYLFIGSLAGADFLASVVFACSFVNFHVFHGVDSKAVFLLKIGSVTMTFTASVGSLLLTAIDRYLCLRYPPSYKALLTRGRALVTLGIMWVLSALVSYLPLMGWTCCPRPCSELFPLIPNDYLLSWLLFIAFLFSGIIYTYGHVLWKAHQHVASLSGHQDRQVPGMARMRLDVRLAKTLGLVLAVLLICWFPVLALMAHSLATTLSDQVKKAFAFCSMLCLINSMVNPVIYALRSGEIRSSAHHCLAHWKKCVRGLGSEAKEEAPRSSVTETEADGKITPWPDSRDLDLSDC
# Chain of human CB1 receptor (hCB1) (P21554 whole entry): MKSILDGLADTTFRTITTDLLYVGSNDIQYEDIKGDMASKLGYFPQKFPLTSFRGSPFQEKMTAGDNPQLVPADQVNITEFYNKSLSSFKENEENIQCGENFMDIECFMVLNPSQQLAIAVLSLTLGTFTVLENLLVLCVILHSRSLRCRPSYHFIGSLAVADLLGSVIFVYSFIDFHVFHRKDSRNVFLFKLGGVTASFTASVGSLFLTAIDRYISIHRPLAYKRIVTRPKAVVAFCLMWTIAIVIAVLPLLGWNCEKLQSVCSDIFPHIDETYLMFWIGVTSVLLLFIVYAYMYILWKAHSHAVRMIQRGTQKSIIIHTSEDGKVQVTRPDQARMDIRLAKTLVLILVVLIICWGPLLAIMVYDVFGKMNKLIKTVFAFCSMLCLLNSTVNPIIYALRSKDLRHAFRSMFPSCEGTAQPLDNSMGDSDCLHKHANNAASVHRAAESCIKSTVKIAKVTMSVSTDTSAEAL
SMILES,EC50 [1] [nM],"EC50 [2, 3] [nM]","EC50 [2, 4] [nM]"
"CNC(=O)[C@@H](NC(=O)n1nc(-c2ccc(F)c(F)c2)c2c1CCN(C)C2)C(C)(C)C [Compound 42, (S)-3-(3,4-difluorophenyl)-N-(3,3-dimethyl-1-(methylamino)-1-oxobutan-2-yl)-5-methyl-4,5,6,7-tetrahydro-1H-pyrazolo[4,3-c]pyridine-1-carboxamide]",< 1000,< 1000,–
"CN1CCN(C(=O)[C@@H](NC(=O)n2nc(-c3cc(F)c(F)cc3F)c3c2CCOC3)C(C)(C)C)CC1 [Compound 32, (S)—N-(3,3-dimethyl-1-(4-methylpiperazin-1-yl)-1-oxobutan-2-yl)-3-(2,4,5-trifluorophenyl)-6,7-dihydropyrano[4,3-c]pyrazole-1(4H)-carboxamide]",< 1000,< 1000,–
"CC(C)(C)c1csc(NC(=O)n2nc(-c3ccc(F)c(F)c3)c3c2CCOC3)n1 [Compound 56, N-(4-tert-butylthiazol-2-yl)-3-(3,4-difluorophenyl)-6,7-dihydropyrano[4,3-c]pyrazole-1(4H)-carboxamide]",< 1000,–,< 1000
"CC(C)(C)[C@H](NC(=O)n1nc(-c2cc(F)c(F)cc2F)c2c1CCOC2)C(=O)N1CC[C@H](O)C1 [Compound 31, N—((S)-1-((S)-3-hydroxypyrrolidin-1-yl)-3,3-dimethyl-1-oxobutan-2-yl)-3-(2,4,5-trifluorophenyl)-6,7-dihydropyrano[4,3-c]pyrazole-1(4H)-carboxamide]",< 1000,–,< 1000
CN1CCc2c(c(-c3ccc(F)c(F)c3)nn2C(=O)N[C@@]23C[C@@H]4C[C@@H](C[C@@](O)(C4)C2)C3)C1 [Compound 55],< 1000,< 1000,–
"CN1CCc2c(c(-c3ccc(F)c(F)c3)nn2C(=O)N[C@H](CO)C(C)(C)C)C1 [Compound 48, (S)-3-(3,4-difluorophenyl)-N-(1-hydroxy-3,3-dimethylbutan-2-yl)-5-methyl-4,5,6,7-tetrahydro-1H-pyrazolo[4,3-c]pyridine-1-carboxamide]",> 1000,< 1000,–
"CN1CCc2c(c(-c3cc(F)ccc3F)nn2C(=O)N[C@H](C(=O)O)C(C)(C)C)C1 [Compound 81, (S)-2-(3-(2,5-difluorophenyl)-5-methyl-4,5,6,7-tetrahydro-1H-pyrazolo[4,3-c]pyridine-1-carboxamido)-3,3-dimethylbutanoic acid]",> 30000,–,> 30000
"CNC(=O)[C@@H](NC(=O)n1nc(-c2ccc(F)c(F)c2)c2c1CCNC2)C(C)(C)C [Compound 52, (S)-3-(3,4-difluorophenyl)-N-(3,3-dimethyl-1-(methylamino)-1-oxobutan-2-yl)-4,5,6,7-tetrahydro-1H-pyrazolo[4,3-c]pyridine-1-carboxamide]",< 1000,< 1000,–
"CNC(=O)[C@@H](NC(=O)n1nc(-c2cc(F)c(F)cc2F)c2c1CCNC2)C(C)(C)C [Compound 84, (S)—N-(3,3-dimethyl-1-(methylamino)-1-oxobutan-2-yl)-3-(2,4,5-trifluorophenyl)-4,5,6,7-tetrahydro-1H-pyrazolo[4,3-c]pyridine-1-carboxamide]",< 1000,< 1000,–
"CN1CCc2c(c(-c3cc(F)c(F)cc3F)nn2C(=O)N[C@H](C(=O)NCCO)C(C)(C)C)C1 [Compound 40, (S)—N-(1-(2-hydroxyethylamino)-3,3-dimethyl-1-oxobutan-2-yl)-5-methyl-3-(2,4,5-trifluorophenyl)-4,5,6,7-tetrahydro-1H-pyrazolo[4,3-c]pyridine-1-carboxamide]",< 1000,< 1000,–
"CNC(=O)[C@@H](NC(=O)n1nc(-c2cc(F)c(F)cc2F)c2c1CN(C)CC2)C(C)(C)C [Compound 38, (S)—N-(3,3-dimethyl-1-(methylamino)-1-oxobutan-2-yl)-6-methyl-3-(2,4,5-trifluorophenyl)-4,5,6,7-tetrahydro-1H-pyrazolo[3,4-c]pyridine-1-carboxamide]",< 1000,< 1000,–
"CN1CCc2c(c(-c3cc(F)c(F)cc3F)nn2C(=O)N[C@H](C(N)=O)C(C)(C)C)C1 [Compound 41, (S)—N-(1-amino-3,3-dimethyl-1-oxobutan-2-yl)-5-methyl-3-(2,4,5-trifluorophenyl)-4,5,6,7-tetrahydro-1H-pyrazolo[4,3-c]pyridine-1-carboxamide]",< 1000,–,> 1000
"COC(=O)[C@@H](NC(=O)n1nc(-c2cc(F)c(F)cc2F)c2c1CCOC2)C(C)(C)C [Compound 34, (S)-methyl 3,3-dimethyl-2-(3-(2,4,5-trifluorophenyl)-1,4,6,7-tetrahydropyrano[4,3-c]pyrazole-1-carboxamido)butanoate]",< 1000,< 1000,–
"CNC(=O)[C@@H](NC(=O)n1nc(-c2ccc(F)c(F)c2)c2c1CCC1(C2)OCCO1)C(C)(C)C [Compound 63, (S)-3′-(3,4-difluorophenyl)-N-(3,3-dimethyl-1-(methylamino)-1-oxobutan-2-yl)-6′,7′-dihydrospiro[[1,3]dioxolane-2,5′-indazole]-1′(4′H)-carboxamide]",< 1000,< 1000,–
"CNC(=O)[C@@H](NC(=O)n1nc(C(C)(C)C)c2c1CCN(C)C2)C(C)(C)C [Compound 44, (S)-3-tert-butyl-N-(3,3-dimethyl-1-(methylamino)-1-oxo-butan-2-yl)-5-methyl-4,5,6,7-tetrahydro-1H-pyrazolo[4,3-c]pyridine-1-carboxamide]",> 1000,< 1000,–
"CNC(=O)[C@@H](NC(=O)n1nc(-c2cc(F)ccc2F)c2c1CCN(C)C2)C(C)(C)C [Compound 64, (S)-3-(2,5-difluorophenyl)-N-(3,3-dimethyl-1-(methylamino)-1-oxobutan-2-yl)-5-methyl-4,5,6,7-tetrahydro-1H-pyrazolo[4,3-c]pyridine-1-carboxamide]",< 1000,–,> 1000
"CC(C)(C)[C@@H](CO)NC(=O)n1nc(-c2cc(F)c(F)cc2F)c2c1CCOC2 [Compound 33, (S)—N-(1-hydroxy-3,3-dimethylbutan-2-yl)-3-(2,4,5-trifluorophenyl)-6,7-dihydropyrano[4,3-c]pyrazole-1(4H)-carboxamide]",< 1000,< 1000,–
"CN1CCc2c(c(-c3cc(F)c(F)cc3F)nn2C(=O)N[C@@H](CO)c2ccccc2)C1 [Compound 70, (R)—N-(2-hydroxy-1-phenylethyl)-5-methyl-3-(2,4,5-trifluorophenyl)-4,5,6,7-tetrahydro-1H-pyrazolo[4,3-c]pyridine-1-carboxamide]",< 1000,–,> 1000
CC(C)(C)c1cc(NC(=O)n2nc(-c3ccc(F)c(F)c3)c3c2CCOC3)no1 [Compound 57],> 1000,–,< 1000
"CCOC(=O)CN1CCCc2c1c(-c1ccc(F)c(F)c1)nn2C(=O)N[C@H](C(=O)NC)C(C)(C)C [Compound 100, (S)-ethyl 2-(3-(3,4-difluorophenyl)-1-(3,3-dimethyl-1-(methylamino)-1-oxobutan-2-ylcarbamoyl)-6,7-dihydro-1H-pyrazolo[4,3-b]pyridin-4(5H)-yl)acetate]",< 1000,< 1000,–
"CCOC(=O)CN1CCc2c(c(-c3cc(F)c(F)cc3F)nn2C(=O)N[C@H](C(=O)NC)C(C)(C)C)C1 [Compound 83, (S)-ethyl 2-(1-(3,3-dimethyl-1-(methylamino)-1-oxobutan-2-ylcarbamoyl)-3-(2,4,5-trifluorophenyl)-6,7-dihydro-1H-pyrazolo[4,3-c]pyridin-5(4H)-yl)acetate]",< 1000,–,> 1000
"CN1CCc2c(c(-c3cc(F)c(F)cc3F)nn2C(=O)N[C@H](C(=O)N2CCC(C(N)=O)CC2)C(C)(C)C)C1 [Compound 79, (S)—N-(1-(4-carbamoylpiperidin-1-yl)-3,3-dimethyl-1-oxobutan-2-yl)-5-methyl-3-(2,4,5-trifluorophenyl)-4,5,6,7-tetrahydro-1H-pyrazolo[4,3-c]pyridine-1-carboxamide]",< 1000,–,> 1000
